Data taken from patent US20070117743A1, “New antitumoral compounds” (priority 2003, published 2007).
Like-named read-outs stand apart in the source and are kept apart here. Where a SMILES comes first, the peptide text is derived from it. Bridges are numbered along the chain shown (N, C = ends). [ ]: non-standard residue; d: D form. The star is where a group is joined. Bip = N[C@@H](Cc1ccc(-c2ccccc2)cc1)C(=O)O; d(aIle) = CC[C@H](C)[C@@H](N)C(=O)O; d(aThr) = C[C@@H](O)[C@@H](N)C(=O)O; Hexanoyl(5-Me) = CC(C)CCCC(=O)*; Orn = NCCC[C@H](N)C(=O)O; Dhb = C/C=C(\N)C(=O)O

What was measured:
Format in all cases: cell-based, human
DU-145 = test: SRB colorimetric assay of cell growth and viability, DU-145; conditions: 48 hours exposure
SK-BR-3 = test: SRB colorimetric assay of cell growth and viability, SK-BR-3; conditions: 48 hours exposure
SK-MEL-28 = test: SRB colorimetric assay of cell growth and viability, SK-MEL-28; conditions: 48 hours exposure; for CC50: read-out: LC50 MEL-28
LoVo-Dox = test: SRB colorimetric assay of cell growth and viability, LoVo-Dox; conditions: 48 hours exposure; for CC50: read-out: LC50 LOVO-DOX
How it was run: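 Human tumor cells seeded at 5×10^3/well in RPMI 1640 10% FBS, attached 18 hours, then exposed 48 hours to compound (10 to 10^−8 μg/mL). TCA-fixed, SRB-stained, OD 490 nm; triplicates give GI, TGI and LC values.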

PANC-1 = test: SRB colorimetric assay of cell growth and viability, PANC-1; conditions: 48 hours exposure; for CC50: read-out: LC50 PANC-1
LoVo = test: SRB colorimetric assay of cell growth and viability, LoVo; conditions: 48 hours exposure; for CC50: read-out: LC50 LOVO
IGROV-1 = test: SRB colorimetric assay of cell growth and viability, IGROV-1; conditions: 48 hours exposure
HeLa-APL = test: SRB colorimetric assay of cell growth and viability, HeLa-APL; conditions: 48 hours exposure; for CC50: read-out: LC50 HELA-APL
A-549 = test: SRB colorimetric assay of cell growth and viability, A-549; conditions: 48 hours exposure; for GI50: read-out: GI50 A-549; for CC50: read-out: LC50 A-549
HeLa = test: SRB colorimetric assay of cell growth and viability, HeLa; conditions: 48 hours exposure; for CC50: read-out: LC50 HELA
IGROV-ET = test: SRB colorimetric assay of cell growth and viability, IGROV-ET; conditions: 48 hours exposure; for CC50: read-out: LC50 IGROV-ET
K-562 = test: SRB colorimetric assay of cell growth and viability, K-562; conditions: 48 hours exposure; for CC50: read-out: LC50 K-562
HT-29 = test: SRB colorimetric assay of cell growth and viability, HT-29; conditions: 48 hours exposure; for GI50: read-out: GI50 HT-29; for CC50: read-out: LC50 HT-29

SMILES: C/C=C1\NC(=O)[C@H](Cc2ccccc2)N(C)C(=O)[C@@H](C(C)C)NC(=O)[C@@H]([C@@H](C)CC)NC(=O)[C@H](NC(=O)[C@H](NC(=O)[C@H](CCCN)NC(=O)[C@H]2CCCN2C(=O)[C@H](NC(=O)[C@@H](NC(=O)[C@@H](NC(=O)[C@H](NC(=O)CC[C@@H](C)CC)C(C)C)[C@@H](C)O)C(C)C)C(C)C)[C@@H](C)CC)[C@@H](C)OC(=O)[C@H](C(C)C)NC1=O [Compound 80, [NMePhe^3, (4S)-MeHex^14]-KF]
- GI50 (DU-145; SRB): 1070 nM
- LC50 (concentration causing 50% net cell kill) (DU-145; SRB): 3620 nM
- TGI DU-145 (DU-145; SRB): 1.97E−06 Molar
- GI50 (SK-BR-3; SRB): 123 nM
- LC50 (SK-BR-3; SRB): 1430 nM
- TGI SK-BR-3 (SK-BR-3; SRB): 3.29E−07 Molar
- GI50 (SK-MEL-28; SRB): 1320 nM
- TGI MEL-28 (SK-MEL-28; SRB): 2.25E−06 Molar
- CC50 (SK-MEL-28; SRB): 3840 nM
- GI50 (LoVo-Dox; SRB): 120 nM
- TGI LOVO-DOX (LoVo-Dox; SRB): 2.08E−07 Molar
- CC50 (LoVo-Dox; SRB): 359 nM
- GI50 (PANC-1; SRB): 1900 nM
- TGI PANC-1 (PANC-1; SRB): 3.82E−06 Molar
- CC50 (PANC-1; SRB): 6700 nM
- GI50 (LoVo; SRB): 125 nM
- TGI LOVO (LoVo; SRB): 2.61E−07 Molar
- CC50 (LoVo; SRB): 545 nM
- GI50 (IGROV-1; SRB): 416 nM
- LC50 (concentration causing 50% net cell killing) (IGROV-1; SRB): 2820 nM
- TGI IGROV (IGROV-1; SRB): 1.17E−06 Molar
- GI50 (HeLa-APL; SRB): 845 nM
- TGI HELA-APL (HeLa-APL; SRB): 1.64E−06 Molar
- CC50 (HeLa-APL; SRB): 3190 nM
- TGI A-549 (A-549; SRB): 2.03E−06 Molar
- GI50 (A-549; SRB): 1130 nM
- CC50 (A-549; SRB): 3670 nM
- GI50 (HeLa; SRB): 392 nM
- TGI HELA (HeLa; SRB): 1.19E−06 Molar
- CC50 (HeLa; SRB): 2510 nM
- GI50 (IGROV-ET; SRB): 583 nM
- TGI IGROV-ET (IGROV-ET; SRB): 1.39E−06 Molar
- CC50 (IGROV-ET; SRB): 3040 nM
- GI50 (K-562; SRB): 744 nM
- TGI K-562 (K-562; SRB): 1.62E−06 Molar
- CC50 (K-562; SRB): 3540 nM
- TGI HT-29 (HT-29; SRB): 4.03E−07 Molar
- GI50 (HT-29; SRB): 178 nM
- CC50 (HT-29; SRB): 1200 nM

SMILES: C/C=C1\NC(=O)[C@H](Cc2ccc(-c3ccccc3)cc2)NC(=O)[C@@H](C(C)C)NC(=O)[C@@H]([C@@H](C)CC)NC(=O)[C@H](NC(=O)[C@H](NC(=O)[C@H](CCCN)NC(=O)[C@H]2CCCN2C(=O)[C@H](NC(=O)[C@@H](NC(=O)[C@@H](NC(=O)[C@H](NC(=O)CCCC(C)C)C(C)C)[C@@H](C)O)C(C)C)C(C)C)[C@@H](C)CC)[C@@H](C)OC(=O)[C@H](C(C)C)NC1=O [Compound 86, [Bip^3]-KF] ({Hexanoyl(5-Me)}-[dV]TV[dV][dP][Orn][d(aIle)][d(aThr)][d(aIle)][dV][Bip][Dhb]V; ester 8-C)
- GI50 (DU-145; DU-145): 124 nM
- LC50 (concentration causing 50% net cell kill) (DU-145; DU-145): 527 nM
- TGI DU-145 (DU-145; DU-145): 2.56E−07 Molar
- GI50 (SK-BR-3; SK-BR-3): 28.9 nM
- LC50 (SK-BR-3; SK-BR-3): 5070 nM
- TGI SK-BR-3 (SK-BR-3; SK-BR-3): 1.79E−07 Molar
- GI50 (SK-MEL-28; MEL-28): 183 nM
- TGI MEL-28 (SK-MEL-28; MEL-28): 4.11E−07 Molar
- CC50 (SK-MEL-28; MEL-28): 2480 nM
- GI50 (LoVo-Dox; LOVO-DOX): 73.3 nM
- TGI LOVO-DOX (LoVo-Dox; LOVO-DOX): 2.69E−07 Molar
- CC50 (LoVo-Dox; LOVO-DOX): ≥ 6430 nM
- GI50 (PANC-1; PANC-1): 984 nM
- TGI PANC-1 (PANC-1; PANC-1): 2.17E−06 Molar
- CC50 (PANC-1; PANC-1): 4770 nM
- GI50 (LoVo; LOVO): 63.7 nM
- TGI LOVO (LoVo; LOVO): 2.89E−07 Molar
- CC50 (LoVo; LOVO): 4680 nM
- GI50 (IGROV-1; IGROV): 181 nM
- LC50 (concentration causing 50% net cell killing) (IGROV-1; IGROV): ≥ 6430 nM
- TGI IGROV (IGROV-1; IGROV): 5.23E−07 Molar
- GI50 (HeLa-APL; HELA-APL): 424 nM
- TGI HELA-APL (HeLa-APL; HELA-APL): 1.65E−06 Molar
- CC50 (HeLa-APL; HELA-APL): 6070 nM
- TGI A-549 (A-549; A-549): 2.87E−07 Molar
- GI50 (A-549; A-549): 125 nM
- CC50 (A-549; A-549): 810 nM
- GI50 (HeLa; HELA): 177 nM
- TGI HELA (HeLa; HELA): 8.17E−07 Molar
- CC50 (HeLa; HELA): 3900 nM
- GI50 (IGROV-ET; IGROV-ET): 150 nM
- TGI IGROV-ET (IGROV-ET; IGROV-ET): 1.00E−06 Molar
- CC50 (IGROV-ET; IGROV-ET): ≥ 6430 nM
- GI50 (K-562; K-562): 1100 nM
- TGI K-562 (K-562; K-562): 2.32E−06 Molar
- CC50 (K-562; K-562): 4870 nM
- TGI HT-29 (HT-29; HT-29): 3.73E−07 Molar
- GI50 (HT-29; HT-29): 129 nM
- CC50 (HT-29; HT-29): 5070 nM

SMILES: C/C=C1\NC(=O)[C@H](Cc2ccc(F)c(F)c2)NC(=O)[C@@H](C(C)C)NC(=O)[C@@H]([C@@H](C)CC)NC(=O)[C@H](NC(=O)[C@H](NC(=O)[C@H](CCCN)NC(=O)[C@H]2CCCN2C(=O)[C@H](NC(=O)[C@@H](NC(=O)[C@@H](NC(=O)[C@H](NC(=O)CCCC(C)C)C(C)C)[C@@H](C)O)C(C)C)C(C)C)[C@@H](C)CC)[C@@H](C)OC(=O)[C@H](C(C)C)NC1=O [Compound 84, [Phe(3,4-F2)^3]-KF]
- GI50 (DU-145; DU-145): 111 nM
- LC50 (concentration causing 50% net cell kill) (DU-145; DU-145): 463 nM
- TGI DU-145 (DU-145; DU-145): 2.54E−07 Molar
- GI50 (SK-BR-3; SK-BR-3): 27.3 nM
- LC50 (SK-BR-3; SK-BR-3): 136 nM
- TGI SK-BR-3 (SK-BR-3; SK-BR-3): 5.34E−08 Molar
- GI50 (SK-MEL-28; MEL-28): 224 nM
- TGI MEL-28 (SK-MEL-28; MEL-28): 3.55E−07 Molar
- CC50 (SK-MEL-28; MEL-28): 561 nM
- GI50 (LoVo-Dox; LOVO-DOX): 32.3 nM
- TGI LOVO-DOX (LoVo-Dox; LOVO-DOX): 6.88E−08 Molar
- CC50 (LoVo-Dox; LOVO-DOX): 176 nM
- GI50 (PANC-1; PANC-1): 725 nM
- TGI PANC-1 (PANC-1; PANC-1): 1.17E−06 Molar
- CC50 (PANC-1; PANC-1): 1840 nM
- GI50 (LoVo; LOVO): 31.7 nM
- TGI LOVO (LoVo; LOVO): 7.25E−08 Molar
- CC50 (LoVo; LOVO): 150 nM
- GI50 (IGROV-1; IGROV): 47.2 nM
- LC50 (concentration causing 50% net cell killing) (IGROV-1; IGROV): 155 nM
- TGI IGROV (IGROV-1; IGROV): 9.40E−08 Molar
- GI50 (HeLa-APL; HELA-APL): 117 nM
- TGI HELA-APL (HeLa-APL; HELA-APL): 2.49E−07 Molar
- CC50 (HeLa-APL; HELA-APL): 467 nM
- TGI A-549 (A-549; A-549): 3.96E−07 Molar
- GI50 (A-549; A-549): 224 nM
- CC50 (A-549; A-549): 848 nM
- GI50 (HeLa; HELA): 70.6 nM
- TGI HELA (HeLa; HELA): 2.17E−07 Molar
- CC50 (HeLa; HELA): 451 nM
- GI50 (IGROV-ET; IGROV-ET): 65.1 nM
- TGI IGROV-ET (IGROV-ET; IGROV-ET): 1.16E−07 Molar
- CC50 (IGROV-ET; IGROV-ET): 343 nM
- GI50 (K-562; K-562): 560 nM
- TGI K-562 (K-562; K-562): 9.28E−07 Molar
- CC50 (K-562; K-562): 1420 nM
- TGI HT-29 (HT-29; HT-29): 9.77E−08 Molar
- GI50 (HT-29; HT-29): 62.7 nM
- CC50 (HT-29; HT-29): 152 nM
